Reference: patent US7795456B2, “Insecticidal N-substituted sulfoximines” (Dow AgroSciences LLC, priority 2004, dated 2010)

Columns and labels:
[1] = test system: corn earworm (Helicoverpa zea); settings: 50 μg/cm2, second-instar larvae, 5 days
[2] = test system: beet armyworm (Spodoptera exigua); settings: 50 μg/cm2, second-instar larvae, 5 days
[3] = test system: fruit fly (Drosophila melanogaster); settings: for FF 25: % mortality at 25 μg/cm2 against fruit fly in dietary tests: 25 μg/cm2, 48 h
[4] = test system: cotton aphid (Aphis gossypii); assay: Insecticidal test for cotton aphid, foliar spray on squash; settings: Aphis gossypii, foliar, 72 h; for pest or weed control at 50 ppm: read-out: CA 50: % control at 50 ppm against cotton aphid in foliar spray tests; for pest or weed control at 200 ppm: read-out: CA 200: % control at 200 ppm against cotton aphid in foliar spray tests

Row | SMILES | CEW 50: % mortality at 50 μg/cm2 against corn earworm in dietary tests [1] | BAW 50: % mortality at 50 μg/cm2 against beet armyworm in dietary tests [2] | FF 25: % mortality at 25 μg/cm2 against fruit fly in dietary tests [3] | pest or weed control at 50 ppm [4] | pest or weed control at 200 ppm [4] | FF SYM: % showing intoxicated symptoms at 25 μg/cm2 against fruit fly in dietary tests ([3]; 25 μg/cm2, 4 h)
1 | CC(Cc1ccc(Cl)nc1)CS(C)(=O)=NC#N (centres unmarked) [Compound 2, [3-(6-Chloropyridin-3-yl)-2-methylpropyl](methyl)oxido-λ^4-sulfanylidenecyanamide] | G (Inactive) | G (Inactive) | G (Inactive) | 80 to 89% | 90 to 100% | –
2 | CC(Cc1ccc(Cl)nc1)CS(C)(=O)=N[N+](=O)[O-] (centres unmarked) [Compound 3, 2-chloro-5-(2-methyl-3-{methyl(oxido)[oxido-(oxo)hydrazono]-λ^4-sulfanyl}propyl)pyridine] | G (Inactive) | G (Inactive) | G (Inactive) | – | 80 to 89% | –
3 | N#CN=S1(=O)CCCCC1 [Compound 6, 1-Oxidohexahydro-1λ^4-thiopyran-1-ylidenecyanamide] | G (Inactive) | G (Inactive) | G (Inactive) | – | – | –
4 | COC(=O)N=S1(=O)CCCC1Cc1ccc(Cl)nc1 (centres unmarked) [Compound 7, methyl 2-[(6-chloropyridin-3-yl)methyl]-1-oxidotetrahydro-1H-1λ^4-thien-1-ylidenecarbamate] | G (Inactive) | G (Inactive) | G (Inactive) | – | 80 to 89% | –
5 | CC(CS(C)(=O)=NC#N)c1ccc(Cl)nc1 (centres unmarked) [Compound 15] | G (Inactive) | G (Inactive) | G (Inactive) | 80 to 89% | 90 to 100% | –
6 | CC[S@@](=O)(C[C@@H](C)c1ccc(Cl)nc1)=NC#N [Compound 17] | G (Inactive) | G (Inactive) | G (Inactive) | 90 to 100% | 90 to 100% | –
7 | Cc1ccc(CC2CCCS2(=O)=NC#N)cn1 (centres unmarked) [Compound 30] | G (Inactive) | G (Inactive) | G (Inactive) | 90 to 100% | 90 to 100% | –
8 | CC(C)[C@H]1CCCS1(=O)=NC#N (some centres unmarked) [Compound 31] | G (Inactive) | G (Inactive) | G (Inactive) | – | 90 to 100% | –
9 | CS(=O)(Cc1ccc(Cl)nc1)=N[N+](=O)[O-] (centres unmarked) [Compound 33] | G (Inactive) | G (Inactive) | F (Less than 50) | 90 to 100% | 90 to 100% | F (Less than 50)
10 | CS(=O)(CCc1ccc(Cl)nc1)=N[N+](=O)[O-] (centres unmarked) [Compound 37] | G (Inactive) | G (Inactive) | G (Inactive) | 90 to 100% | 90 to 100% | –
11 | CC[S@](=O)(=N[N+](=O)[O-])[C@H](C)c1ccc(Cl)nc1 [Compound 39] | G (Inactive) | G (Inactive) | F (Less than 50) | – | 90 to 100% | –
